Test results from patent US9457087B2, “Stable crystal modifications of DOTAP chloride” (Merck Patent GmbH, priority 2004, dated 2016).

Assays:
[1] = Storage stability of crystalline DOTAP chlorides (HPLC purity and content); assay type: physicochemical; details: 25° C., 60% relative humidity, exclusion of air
Protocol: In order to determine the stability of crystalline DOTAP chlorides, the substances are stored together with comparative samples at 25° C. and 60% relative humidity with exclusion of air. The remaining content of DOTAP chloride is measured at periodic intervals and quoted in comparison to the initial value.
The purity and content of DOTAP chloride are determined by means of HPLC.

[2] = Solubility in acetonitrile; assay type: physicochemical; details: room temperature
[3] = DSC principal phase transition temperatures of multilamellar liposomes in water; assay type: physicochemical; details: heating cycles, lipid 0.1 g/ml, 1° C./min
Protocol: Differential scanning caliometry (DSC) measurements are carried out on multilamellar liposomes in water. Liposomes are prepared by the thin-film method from the calculated amounts of racemic or enantiomerically pure DOTAP chloride. The lipid concentration here is in each case 0.1 g/ml. Suitable amounts of these dispersions are then introduced into sealable aluminium crucibles and measured using a 204 Phoenix calorimeter (Netzsch, Seib, Germany). In each case, three successive heating/cooling runs from −50° C. to +20° C. are carried out at 1° C./min.
For all three DOTAP chloride variants, phase transition temperatures below 0° C. are found. For the cooling cycles, this is in each case at −23° C. to −24° C. Differences between racemic and enantiomerically pure DOTAP chloride are in each case evident in the heating cycles. […] (see FIG. 6).

[4] = storage under protective gas at −20° C.; guaranteed by manufacturer; cited from earlier work
[5] = Hygroscopicity at normal atmospheric humidity; assay type: physicochemical; details: normal atmospheric humidity levels

CCCCCCCC/C=C\CCCCCCCC(=O)OCC(C[N+](C)(C)C)OC(=O)CCCCCCC/C=C\CCCCCCCC.[Cl-] (racemic) [(R,S)-DOTAP chloride crystalline type I, N,N,N-trimethyl-2,3-bis[[(9Z)-1-oxo-9-octadecenyl]oxy]-1-propanaminium chloride]
% by weight (content of DOTAP chloride) ([1]; exposure time 0 months): 98.6% | Area-% (HPLC purity) ([1]; exposure time 0 months): 100% | % by weight (content of DOTAP chloride) ([1]; exposure time 1 month): 97.% | Area-% (HPLC purity) ([1]; exposure time 1 month): 100.0% | % by weight (content of DOTAP chloride) ([1]; exposure time 2 months): 97.9% | Area-% (HPLC purity) ([1]; exposure time 2 months): 100.0% | % by weight (content of DOTAP chloride) ([1]; exposure time 3 months): 97.2% | Area-% (HPLC purity) ([1]; exposure time 3 months): 100.0% | % by weight (content of DOTAP chloride) ([1]; exposure time 6 months): 98.2% | Area-% (HPLC purity) ([1]; exposure time 6 months): 100.0% | % by weight (content of DOTAP chloride) ([1]; exposure time 12 months): 98.7% | Area-% (HPLC purity) ([1]; exposure time 12 months): 100.0%

CCCCCCCC/C=C\CCCCCCCC(=O)OCC(C[N+](C)(C)C)OC(=O)CCCCCCC/C=C\CCCCCCCC.[Cl-] (racemic) [racemate, N,N,N-trimethyl-2,3-bis[[(9Z)-1-oxo-9-octadecenyl]oxy]-1-propanaminium chloride]
solubility in acetonitrile [2]: virtually insoluble | endothermic phase transition temperature [3]: −17.5 °C

CCCCCCCC/C=C\CCCCCCCC(=O)OC[C@@H](C[N+](C)(C)C)OC(=O)CCCCCCC/C=C\CCCCCCCC.[Cl-] [(2R)-DOTAP chloride]
endothermic phase transition temperature [3]: around −12.5 °C

CCCCCCCC/C=C\CCCCCCCC(=O)OC[C@H](C[N+](C)(C)C)OC(=O)CCCCCCC/C=C\CCCCCCCC.[Cl-] [(2S)-DOTAP]
endothermic phase transition temperature [3]: around −12.5 °C

CCCCCCCC/C=C\CCCCCCCC(=O)OCC(C[N+](C)(C)C)OC(=O)CCCCCCC/C=C\CCCCCCCC.[Cl-] (stereo not drawn) [amorphous DOTAP chloride]
shelf life [4]: about 6 months | hygroscopicity [5]: extremely hygroscopic
